Here are results for three molecules from patent US20120225849A1, “2-Methoxyestradiol (2-ME2) Prodrug with Enhanced Bioavailability for Prophylaxis or Treatment of Cancerous or Non-Cancerous Condition” (The University of Kansas, priority 2011, published 2012).

Data set [1] can be described thus: Rat plasma pharmacokinetics of 2-ME2 after intravenous and oral dosing (cannulated rat model). The data set is classed as in vivo, Sprague Dawley rats. The note with it: for Bioavailability: AUC through 480 minutes. The procedure: The main compound of the present invention (2ME2-PD) and the native compound (8R,9S,13S,14S,17S)-2-methoxy-13-methyl-7,8,9,11,12,13,14,15,16,17-decahydro-6H-cyclopenta[a]phenanthren-17-ol (2-ME2) were dissolved independently in 0.1 M Captisol® at concentrations between 10 mg/mL and 21 mg/mL. The solutions were sterile filtered through 0.2 micron filters prior to use.
Animal studies were approved and conducted in accordance with the guidelines of the Institutional Animal Care and Use Committee. A cannulated rat model was used to study the intravenous (iv) and oral absorption 2-ME2 and 2-ME2-PD.
Sprague Dawley rats (male, 250-300 gram, Charles River Laboratories) were implanted with carotid artery, and jugular and/or femoral vein catheters. These studies were automated with the animals connected to the Culex Automated Pharmacology System allowing for direct comparison of pharmacokinetic behavior between the orally and iv administered compounds in the same animal. Following surgery, the animals were connected to the Culex and allowed to recover and acclimate. Fasted animals were dosed intravenously and orally with solutions of 2-ME2-PD in 0.1 M Captisol® (CyDex Pharmaceuticals, Inc) and 2-ME2 parent in 0.2 M HP-13-CD (Sigma-Aldrich).
Oral doses were given via gavage to the animal under light anesthesia. Blood was sampled at times ranging from five to 1440 minutes into heparinized vials stored on the chilled fraction collector, and remained there until sampling was complete. Blood samples were processed to plasma via centrifugation and stored at −80° C. until analysis for 2-ME2-PD, 2-ME2 and associated metabolite concentration by liquid chromatography-mass spectrometry (LC-MS/MS). Bioanalytical methods for the 2-ME2-PD and 2-ME2 analysis were modified from those of Lakhani et. al. Quantitation was made relative to deuterated internal standards.
Pharmacokinetic analysis of the resulting plasma concentration time data was performed using PK Solution software (Summit PK). Results for the studies conducted are illustrated in FIG. 1 and Table II (below). For oral doses of 2-ME2, no compound was found in plasma at all time points studied (<2 ng/mL LOQ). All samples from times greater than 480 minutes had 2-ME2 levels that were below the limit of quantitation.

Another data set concerns OE33 xenografts. Description: Growth of Barrett's esophageal adenocarcinoma (BEAC) OE33 xenografts in nude mice. The data set is classed as in vivo. As to conditions: 75 mg/kg/day orogastric feeding, 8 days, versus vehicle control, listed as pro-2-ME2. The procedure: We injected ˜2.0×10^6 OE33 cells subcutaneously into the left hind leg flank of each nude mice […] for the development of tumor. The mice were divided into two groups (two mice per group) with a control group and Pro-2-ME2 treatment group. After forming palpable tumors, the nude mice bearing xenografts of OE33 cells were given daily pro-2-ME2 doses (75 mg/kg/day) by orogastric feeding or vehicle (control). Pro-2-ME2 was dissolved in 500 μl of saline water. We used 500 μl of saline water as a vehicle control. Tumor growth was monitored for 8 days by measuring two perpendicular diameters twice weekly. Tumor volume was calculated according to the formula V=a×b^2/2, where a and b are the largest and smallest diameters, respectively.

For data set [2] the following is noted: Reference 13, cited from earlier work.
For data set [3] the following is noted: oxidation of 2-ME2 at the 17 position; References 3, 13 and 19; cited from earlier work.
The mark [4] stands for this setting: plasma 2-ME2, 2-ME2-PD intravenous 10 mg/kg.
Where [5] appears, read: plasma 2-ME2, 2-ME2-PD oral 20 mg/kg, average of two animals.
The mark [6] stands for this setting: plasma 2-ME2, 2-ME2-PD oral 31.5 mg/kg.
[7] abbreviates: plasma 2-ME2, 2-ME2 intravenous 5.21 mg/kg.

A value given as a limit tells only on which side of the number the result lay.

For `COc1cc2c(cc1OCOP(=O)([O-])[O-])CC[C@@H]1[C@@H]2CC[C@]2(C)[C@@H](OC(C)=O)CC[C@@H]12.[Na+].[Na+]` [2-ME2-PD, disodium(((8R,9S,13S,14S,17S)-17-acetoxy-2-methoxy-13-methyl-7,8,9,11,12,13,14,15,16,17-decahydro-6H-cyclopenta[a]phenanthren-3-yl)oxy)methyl phosphate], the Bioavailability in data set [1] (2-ME2-PD intravenous 10 mg/kg, relative to 2ME2 iv and corrected for dose) was determined as 21.8%; in data set [1] (2-ME2-PD oral 20 mg/kg, relative to 2ME2 iv and corrected for dose, average of two animals), 4.4%; in data set [1] (2-ME2-PD oral 31.5 mg/kg, relative to 2ME2 iv and corrected for dose), 4.9%. Besides, in data set [1] (oral 2-ME2 prodrug, 0-480 minutes), the “absolute bioavailabilities from oral administration” value is 4-5%. Also, the highest concentration (Cmax) in data set [1] (setting [4]) turned out to be 121 ng/mL; in data set [1] (setting [5]), 8.4 ng/mL; in data set [1] (setting [6]), 9.9 ng/mL. In addition, the T1/2 was 4.37 h in data set [1] (setting [4]), 13.4 h in data set [1] (setting [5]) and 6.85 h in data set [1] (setting [6]). Moreover, the AUCt-480 worked out at 4967 ng·min/mL in data set [1] (plasma 2-ME2, 2-ME2-PD intravenous 10 mg/kg (corrected dose 6.06 mg/kg)); 2006 ng·min/mL in data set [1] (plasma 2-ME2, 2-ME2-PD oral 20 mg/kg (corrected dose 12.13 mg/kg), average of two animals); 3516 ng·min/mL in data set [1] (plasma 2-ME2, 2-ME2-PD oral 31.5 mg/kg (corrected dose 19.11 mg/kg)). For the same molecule, the “growth of OE33 tumor implants (tumor volume)” value in the data set with OE33 xenografts is reported as “significantly inhibited”.
Regarding `COc1cc2c(cc1O)CC[C@@H]1[C@@H]2CC[C@]2(C)[C@@H](O)CC[C@@H]12` [2-ME2], in data set [2], the “orally administered dose of 2-ME2 recovered in the urine” value is on record as about 1%. The “fraction of orally administered 2-ME2 dose recovered in the urine as metabolites” value in data set [2] (metabolites, animal and human studies) was “less than 1%”. For the same molecule, the “fraction of orally administered 2-ME2 dose recovered in the urine” value in data set [2] (unchanged 2-ME2, animal and human studies) is on record as “less than 0.1%”. Besides, the Bioavailability in data set [1] (2-ME2 intravenous 5.21 mg/kg (reference)) is 100%. Besides, the “2-ME2 in plasma at all time points (LOQ)” value in data set [1] (oral doses of 2-ME2 (5.21 mg/kg), no compound found) is under 2 ng/mL. Further, in data set [1] (setting [7]), the AUCt-480 was 19253 ng·min/mL, the Cmax amounted to 1221 ng/mL and the T1/2 came to 0.983 h.
For `COc1cc2c(cc1O)CC[C@@H]1[C@@H]2CC[C@]2(C)C(=O)CC[C@@H]12` [2-methoxyestrone], the “loss in activity in vitro versus 2-ME2” value in data set [3] is 10-to 100 fold.

The Cmax is the peak of the concentration-time curve.
